# Test results as given in patent publication US10280465B2, “Biomarkers for predicting relapse in multiple sclerosis” (The United States of America as represented by the …, priority 2014, dated 2019).
# Entries after “also recorded” stand apart in the source; their conditions may differ.
# Legend:
# [1] = test system: Jurkat cells; experiment: Annexin V-FITC binding (early apoptosis) by FACS, Jurkat cells; assay type: cell-based; settings: sirtinol 200 μM, 24 h
# Description: (§1) PBMCs and Jurkat cells were plated in RPMI-10% FBS in 12-well plates 24 h prior to Annexin V FITC FACS analysis. Some of the cells were treated with sirtinol (200 μM) and the binding of Annexin V-FITC to cells was compared with that of cells exposed to vehicle (DMSO) only. Annexin V assay was performed according to manufacturer instructions (BD Biosciences) and only Annexin V FITC positive, propidium iodide negative cells were used in the evaluations since they are reflecting early apoptosis.
# [2] = test system: CD4+ T cells from an MS patient; experiment: Annexin V-FITC binding (early apoptosis) by FACS, CD4+ T cells from an MS patient; assay type: cell-based, human; settings: sirtinol 200 μM, 24 h
# Description: as §1
# [3] = test system: CD8+ T cells from an MS patient; experiment: Annexin V-FITC binding (early apoptosis) by FACS, CD8+ T cells from an MS patient; assay type: cell-based, human; settings: sirtinol 200 μM, 24 h
# Description: as §1
# [4] = test system: SIRT1 mRNA; experiment: SIRT1 mRNA expression in PBMCs from stable MS patients after sirtinol; assay type: cell-based, human; settings: sirtinol 200 μM, data not shown
# [5] = test system: FasL; experiment: FasL expression by FACS analysis in PBMCs from a stable MS patient after sirtinol; assay type: cell-based, human; settings: sirtinol 200 μM
# Description: FIGS. 8A-8D. Effect of SIRT 1 inhibition on FasL expression. PBMCs from a stable MS patient (FIG. 8A, FIG. 8C) were pretreated with the SIRT1 inhibitor sirtinol (200 μM) for 24 h (FIG. 8B, FIG. 8D), cultured with CD4^+ (FIG. 8B) or CD8^+ (FIG. 8D) T cells, and expression of FasL was then determined by FACS analysis.
# [6] = test system: RRMS; experiment: Clinical response to glatiramer acetate in RRMS patients over 2 years; assay type: in vivo, human; settings: 15 RRMS patients, 20 mg subcutaneously every day for 2 years
# Text: A total of 15 patients with RRMS were enrolled in the study. The patients were recruited from the University of Maryland Multiple Sclerosis Center. The mean age was 40 (range, 22-60), and consisted of 60% females (n=9) and 40% males (n=6). The criteria for inclusion of MS patients in the study were: (i) age 18 to 65 years; (ii) fulfillment of the McDonald criteria for definite MS (McDonald et al., 2001; Polman et al., 2005); (iii) relapsing-remitting course; (iv) having newly diagnosed MS, or MS not treated with currently used immunomodulatory drugs (interferon-β or glatiramer acetate) for 3 months prior to study entry; (v) no exacerbations in the 4 weeks before the study; (vi) no i.v. or p.o. steroids for 4 weeks prior to study enrollment; (vii) no treatment with Tysabri, Gilenya, mitoxantrone, cyclophosphamide, or any investigational drug during the past year; and (viii) a disability score of 0-5.5, as defined by the expanded disability status scale (EDSS) (Kurtzke, 1983). […]
# All MS patients received 20 mg of glatiramer acetate (GA) injected subcutaneously every day for 2 years. During this period of 2 years, patients were clinically evaluated and peripheral blood samples were collected at 0, 3, 6, and 12 months at the time of their outpatient visits. […]
# [7] = test system: EAE; settings: cited from earlier work
# [8] = test system: activated T cells; settings: Singh et al., 2007; cited from earlier work
compound,measurement,setting,value
CC(NC(=O)c1ccccc1/N=C/c1c(O)ccc2ccccc12)c1ccccc1 (stereo not drawn) [sirtinol],"Annexin V binding / apoptosis, in words",[1],significant apoptosis; also recorded: significant increase in Annexin V binding
same,cells binding Annexin V,[1]; vehicle DMSO control 6%,65%
same,"Annexin V binding / apoptosis, in words",[2]; CD4+ T cells from an MS patient,significant apoptosis; also recorded: significant increase in Annexin V binding
same,apoptosis (Annexin V binding),"[2]; CD4 cells, control cells 6%",55%
same,"Annexin V binding / apoptosis, in words",[3]; CD8+ T cells from an MS patient,significant apoptosis; also recorded: significant increase in Annexin V binding
same,apoptosis (Annexin V binding),"[3]; CD8 cells, control cells 22%",81%
same,inhibition of the expression of SIRT1 mRNA,[4],50%
same,FasL expression,"[5]; CD4+ T cells, 24 h",significant increase
same,FasL expression,"[5]; CD8+ T cells, 24 h",significant increase
same,FasL expression,[5]; PBMCs from stable MS patients,significantly increased
glatiramer acetate [GA],non-responders (2 or more relapse events during the 2 year span),[6],4
same,responders (0 or no more than 1 relapse event during the 2 year span),[6],11
Oc1ccc(C=Cc2cc(O)cc(O)c2)cc1 [resveratrol],disease course in EAE,"[7]; Nimmagadda et al., 2013",ameliorates the disease course
same,spinal cord inflammation during EAE,"[7]; Singh et al., 2007",decrease in spinal cord inflammation
same,apoptosis in activated T cells,[8],trigger apoptosis
